Source: ChEMBL document CHEMBL1126220, “Synthesis and antifolate properties of 5,10-ethano-5,10-dideazaaminopterin” (J Med Chem, 1992)
pIC50, pKi: −log10 of the molar value.

How the values were obtained:
Dihydrofolate reductase = target: T1, Dihydrofolate reductase (Mus musculus, UniProt P00375); experiment: Inhibition of the dihydrofolate reductase enzyme(DHFR) derived from L1210 murine leukemia cells.; assay type: cell-based
T1 sequence (P00375 whole entry): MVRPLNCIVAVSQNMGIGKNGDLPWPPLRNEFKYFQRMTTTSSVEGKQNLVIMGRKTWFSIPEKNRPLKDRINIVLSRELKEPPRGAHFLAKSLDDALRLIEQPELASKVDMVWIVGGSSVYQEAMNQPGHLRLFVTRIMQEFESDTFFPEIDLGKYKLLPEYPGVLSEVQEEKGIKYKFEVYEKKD

L1210 = experiment: Concentration required to inhibit 50% growth of L1210 cells in culture.; assay type: functional, cell-based; conditions: Mus musculus
[1] = Influx with respect to the MTX.; assay type: functional

With `Nc1nc(N)c2c3c(cnc2n1)CC(c1ccc(C(=O)NC(CCC(=O)O)C(=O)O)cc1)CC3` (stereo not given) the pKi (Dihydrofolate reductase) was 10.77, the pIC50 (L1210) was 8.35 and the Relative influx [1] was 3.3.

Work on `CC(Cc1cnc2nc(N)nc(N)c2c1)c1ccc(C(=O)NC(CCC(=O)O)C(=O)O)cc1` (stereo not given) yielded a Relative influx [1] of 1.43.

`CCC(Cc1cnc2nc(N)nc(N)c2c1)c1ccc(C(=O)NC(CCC(=O)O)C(=O)O)cc1` (stereo not given) gave a Relative influx [1] of 1.32.
